Assays:
Type in all cases: cell-based
COLI (type I collagen) = test: Transcription of type I collagen (COL I) by qRT-PCR in UVA-stimulated fibroblast model; details: for PCR Transcription of Type I Collagen (COL I) Up-regulation Rate Compared with NC Group: UVA 30 J/cm^2, (sample - NC)/NC x 100%; for PCR Transcription of Type I Collagen (COL I) Mean Value: UVA 30 J/cm^2, mRNA by 2^-ΔΔCT normalised to BC = 1 (NC 0.43), dosing: TGF-β1 100 ng/mL, Pro-xylane 0.5000%, tetrapeptide-1 0.00109%, encapsulated retinol 0.00313%, gum 0.00222%, combinations at the same concentrations, 1440 min
Experimental: (§1) Testing method: based on UVA-stimulated fibroblast model, transcription of type I and type III collagens was tested using qRT-PCR method, and specific steps were as follows: • 1) Cell inoculation: after resuscitation of fibroblasts, when a plating rate reached about 60%, cells were inoculated in a 6-well plate, and incubated overnight in an incubator (37 °C, 5% CO2). • 2) Liquid formulation: according to test schemes (see TABLE 1 and TABLE 2), test substance working solutions were formulated respectively according to mass ratios. TABLE 1 COL I Detection Scheme
(§2) 3) Dosing: according to the test schemes in TABLE 1 and TABLE 2, when the plating rate of the cells in the 6-well plate reached about 30%-50%, dosing was performed for the groups respectively, with each group in triplicate. The blank control group and the negative control group were added with 2 mL of a culture solution per well, the positive control group was added with 2 mL of a TGF-β1-containing culture solution per well, and sample group was added with 2mL of a test sample-containing culture solution at corresponding concentration per well. After the dosing was completed, the 6-well plate continued to be cultured in the CO2 incubator (37 °C, 5% CO2) for 24 h.
(§3) 4) UVA stimulation: according to test groups, except the blank control group, other groups were all subjected to UVA irradiation, with an irradiation dosage of 30 J/cm^2. After the irradiation was finished, culture was continued in the CO2 incubator (37 °C, 5% CO2) for 24 h.
(§4) 5) Cell collection: after incubation was ended, an original solution was sucked out and discarded, PBS cleaning was performed twice, and each well was added with 1 mL of RNAiso Plus, to pipet and lyse the cells, after which samples were collected.
(§5) 6) Detection of gene expression: RNA was extracted and subjected to reverse transcription to cDNA to undergo fluorescence quantitative PCR detection, and result was calculated by a 2^-△△CT method.
(§6) 7) Calculation of up-regulation rate: Up-regulation rate (%) = (Sample group−Negative control group)/(Negative control group) × 100% [formula]
(§7) 8) Data analysis: statistical analysis was performed using t-test method, and normalization processing was performed on amplification factors of mRNA in BC group, where all statistical analysis was double-tailed. Compared with the blank group, significance is expressed by ^#, p<0.05 is expressed by ^#, p<0.01 is expressed by ^##; compared with the negative blank group, significance is expressed by*, p<0.05 is expressed by *, p<0.01 is expressed by **.

[1] = tested on: COL III (type III collagen); test: Transcription of type III collagen (COL III) by qRT-PCR in UVA-stimulated fibroblast model; details: for PCR Transcription of Type III Collagen (COL III) Up-regulation Rate Compared with NC Group: UVA 30 J/cm^2, (sample - NC)/NC x 100%; for PCR Transcription of Type III Collagen (COL III) Mean Value: UVA 30 J/cm^2, mRNA by 2^-ΔΔCT normalised to BC = 1 (NC 0.67), dosing: TGF-β1 100 ng/mL, Pro-xylane 0.5000%, tetrapeptide-1 0.00109%, encapsulated retinol 0.00313%, combination at the same concentrations, 1440 min
Experimental: as §1, §2, §3, §4, §5, §6, §7

[2] = tested on: CRABP2 cellular retinoic acid binding protein 2; test: Transcription of CRABP2 by qRT-PCR in UVA-stimulated fibroblast model
Experimental: Testing method: based on UVA-stimulated fibroblast model, transcription of CRABP2 was tested using qRT-PCR method, and specific steps were as follows: • 1) Cell inoculation: after resuscitation of cells, when a plating rate reached about 60%, the cells were inoculated in a 6-well plate, and incubated overnight in an incubator (37 °C, 5% CO2). • 2) Liquid formulation: according to a test scheme (see TABLE 5), test substance working solutions were formulated respectively according to mass ratios. TABLE 5 CRABP2 Detection Scheme
as §2, with “According” for “according”, “scheme” for “schemes”, “5,” for “1 and TABLE 2,”, “2 mL” for “2mL”, “h. […]” for “h.”
6) Detection of gene expression: RNA was extracted and subjected to reverse transcription to cDNA to undergo fluorescence quantitative PCR detection, and result was calculated by a 2^-△△CT method. […]

Row | PCR Transcription of Type I Collagen (COL I) Mean Value (COLI (type I collagen)) | PCR Transcription of Type III Collagen (COL III) Mean Value [1] | Transcription of Cellular Retinoic Acid Binding Protein 2 (CRABP2) Up-regulation Rate Compared with NC Group ([2]; UVA 30 J/cm^2, (sample - NC)/NC x 100%) [%] | Transcription of Cellular Retinoic Acid Binding Protein 2 (CRABP2) Mean Value ([2]; UVA 30 J/cm^2, mRNA by 2^-ΔΔCT normalised to BC = 1 (NC 0.48), dosing: TGF-β1 100 ng/mL, gum 0.00222%, encapsulated retinol 0.00313%, tetrapeptide-1 0.00109%, combinations at the same concentrations, 1440 min) | Compound | PCR Transcription of Type I Collagen (COL I) Up-regulation Rate Compared with NC Group (COLI (type I collagen)) [%] | PCR Transcription of Type III Collagen (COL III) Up-regulation Rate Compared with NC Group [1] [%]
1 | 1.01 | 0.88 |  |  | CC(O)C[C@@H]1OC[C@@H](O)[C@H](O)[C@H]1O (stereo partly shown) [Comparative Example 1, Pro-xylane, reference compound] | 134.88 | 31.34
2 | 0.54 | 0.71 | 20.83 | 0.58 | Tetrapeptide-1 [Comparative Example 2] | 25.58 | 5.97
